The record followed here is patent US11707471B2, “ENPP1 inhibitors and their use for the treatment of cancer” (The Board of Trustees of the Leland Stanford Junior …, priority 2017, dated 2023).

The test system of the experiment is 4T1 tumor. The experiment in a line: 4T1 tumor model: ENPP1 inhibition with IR, cGAMP and anti-CTLA-4. The following applies: 20 Gy IR then intratumoral 10 μg cGAMP on day 2, 4, 7. The format is in vivo, mouse.

For `Nc1nc2c(ncn2[C@@H]2O[C@@H]3COP(=O)(O)O[C@H]4[C@@H](O)[C@H](n5cnc6c(N)ncnc65)O[C@@H]4COP(=O)(O)O[C@@H]2[C@@H]3O)c(=O)[nH]1` [cGAMP, cyclic guanosine monophosphate-adenosine monophosphate], the “effect over IR treatment” value is given as “had no effect over IR treatment”.
